Test results as given in PubChem BioAssay AID256 (DTP/NCI, 2004).
“And” between values parts separate entries of the source, which are not always exact repeats. Identical values can stand only once. Inconclusive results and toxic doses are left out. The calls were made as follows: active = survival T/C of 150% or more; inactive = T/C below 125% in these data.

Test system: CD2F1 mice, L1210 leukemia ip, survival T/C
Test: NCI In Vivo Anticancer Drug Screen. Data for tumor model L1210 Leukemia (intraperitoneal) in CD2F1 (CDF1) mice
Settings: higher = longer survival
Outline: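 Mice carrying a transplanted tumor received test compound or vehicle alone. The value is the measurement in the treated group divided by that in the vehicle-treated control group.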

[1] = endpoint: mean survival time, dose: 100.0 mg/kg/injection, schedule: Q01DX009 (ip), vehicle: other
[2] = endpoint: mean survival time, dose: 200.0 mg/kg/injection, schedule: Q01DX009 (ip), vehicle: other
[3] = endpoint: mean survival time, dose: 400.0 mg/kg/injection, schedule: Q01DX009 (ip), vehicle: other
[4] = endpoint: mean survival time, dose: 100.0 mg/kg/injection, schedule: Q01DX009 (ip), vehicle: saline with Tween-80
[5] = endpoint: mean survival time, dose: 100.0 mg/kg/injection, schedule: Q04DX003 (ip), vehicle: saline with Tween-80
[6] = endpoint: mean survival time, dose: 200.0 mg/kg/injection, schedule: Q01DX009 (ip), vehicle: saline with Tween-80
[7] = endpoint: mean survival time, dose: 200.0 mg/kg/injection, schedule: Q04DX003 (ip), vehicle: saline with Tween-80
[8] = endpoint: mean survival time, dose: 400.0 mg/kg/injection, schedule: Q01DX009 (ip), vehicle: saline with Tween-80
[9] = endpoint: mean survival time, dose: 400.0 mg/kg/injection, schedule: Q04DX003 (ip), vehicle: saline with Tween-80

Measured: T/C

COc1cc2c(cc1OC)[C@@H]1C(=O)c3ccc4c(c3O[C@@H]1CO2)C[C@H](C(C)C)O4
inactive: endpoint: median survival time, dose: 6.25 mg/kg/injection, schedule: Q01DX005 (ip), vehicle: Klucel (hydroxypropylcellulose) (HPC) 107 % of control | endpoint: median survival time, dose: 12.5 mg/kg/injection, schedule: Q01DX005 (ip), vehicle: Klucel (hydroxypropylcellulose) (HPC) 115 % of control | endpoint: median survival time, dose: 18.0 mg/kg/injection, schedule: Q01DX005 (ip), vehicle: Klucel (hydroxypropylcellulose) (HPC) 113 % of control | endpoint: median survival time, dose: 25.0 mg/kg/injection, schedule: Q01DX005 (ip), vehicle: Klucel (hydroxypropylcellulose) (HPC) 115 % of control | endpoint: median survival time, dose: 30.0 mg/kg/injection, schedule: Q01DX005 (ip), vehicle: Klucel (hydroxypropylcellulose) (HPC) 118 % of control | endpoint: median survival time, dose: 100.0 mg/kg/injection, schedule: Q01DX005 (ip), vehicle: Klucel (hydroxypropylcellulose) (HPC) 100 % of control

COC(=O)NC1C(C)OC(OC2C/C=C(/C)C3C=CC4C(OC5CC(OC6CC(O)C(OC7CC(O)C(OC)C(C)O7)C(C)O6)C(O)C(C)O5)C(C)CC(C)C4C3(C)/C(O)=C3\C(=O)OC4(CC(C)C(CO)=CC4/C=C\2C)C3=O)CC1(C)[N+](=O)[O-] (configuration not stated)
inactive: endpoint: median survival time, dose: 12.5 mg/kg/injection, schedule: Q01DX009 (ip), vehicle: Klucel (hydroxypropylcellulose) (HPC) 102 % of control | endpoint: median survival time, dose: 25.0 mg/kg/injection, schedule: Q01DX009 (ip), vehicle: Klucel (hydroxypropylcellulose) (HPC) 109 % of control | endpoint: median survival time, dose: 50.0 mg/kg/injection, schedule: Q01DX009 (ip), vehicle: Klucel (hydroxypropylcellulose) (HPC) 102 % of control | endpoint: median survival time, dose: 100.0 mg/kg/injection, schedule: Q01DX009 (ip), vehicle: Klucel (hydroxypropylcellulose) (HPC) 103 % of control

O=c1[nH]cnc2c1ccn2C1OC(CO)C(O)C1O (configuration not stated)
inactive: endpoint: mean survival time, dose: 6.25 mg/kg/injection, schedule: Q01DX009 (ip), vehicle: saline 111 % of control | endpoint: mean survival time, dose: 6.25 mg/kg/injection, schedule: Q04DX003 (ip), vehicle: saline sonified 106 % of control | endpoint: mean survival time, dose: 12.5 mg/kg/injection, schedule: Q01DX009 (ip), vehicle: saline 90 % of control | endpoint: mean survival time, dose: 12.5 mg/kg/injection, schedule: Q04DX003 (ip), vehicle: saline sonified 109 % of control | endpoint: mean survival time, dose: 16.7 mg/kg/injection, schedule: Q04DX003 (ip), vehicle: saline sonified 121 % of control | endpoint: mean survival time, dose: 25.0 mg/kg/injection, schedule: Q04DX003 (ip), vehicle: saline sonified 113 % of control | endpoint: mean survival time, dose: 37.5 mg/kg/injection, schedule: Q04DX003 (ip), vehicle: saline sonified 119 % of control

O=c1cc(O)c(Cl)n[nH]1
inactive: endpoint: mean survival time, dose: 25.0 mg/kg/injection, schedule: Q01DX009 (ip), vehicle: other 94 % of control | endpoint: mean survival time, dose: 50.0 mg/kg/injection, schedule: Q01DX009 (ip), vehicle: other 94 % of control | [1] 97 % of control | [2] 92 % of control | [3] 88 % of control

CCOC(=O)C(=O)CC(=O)c1ccc(OC)cc1
inactive: [4] 98 % of control | [5] 100 % of control | [6] 96 % of control | [7] 95 % of control | [8] 101 % of control | [9] 95 % of control

COc1ccc(Br)cc1C1OC(=O)c2c(OC)c(OC)cc([N+](=O)[O-])c21 (configuration not stated)
inactive: [5] 92 % of control | [7] 93 % of control

CCCCCCCCCCCCCCCCCCOCC(COP(=O)([O-])OCC[N+](C)(C)C)OC (configuration not stated)
inactive: endpoint: median survival time, dose: 6.25 mg/kg/injection, schedule: Q01DX009 (ip), vehicle: suspension in saline 98 % of control | endpoint: median survival time, dose: 12.5 mg/kg/injection, schedule: Q01DX009 (ip), vehicle: suspension in saline 93 % of control | endpoint: median survival time, dose: 25.0 mg/kg/injection, schedule: Q01DX009 (ip), vehicle: suspension in saline 104 % of control | endpoint: median survival time, dose: 50.0 mg/kg/injection, schedule: Q01DX009 (ip), vehicle: suspension in saline 88 % of control

O=S1(=O)Cc2ccc(Br)cc2C1
inactive: [4] 103 % of control | [5] 90 % of control | [6] 101 % of control | [7] 91 % of control | [8] 97 % of control | [9] 90 % of control

O=C(CCl)N1CCC(CC2(c3cc4ccccc4[nH]3)OCCO2)CC1
inactive: endpoint: mean survival time, dose: 50.0 mg/kg/injection, schedule: Q04DX002 (ip), vehicle: other 106 % of control | endpoint: mean survival time, dose: 100.0 mg/kg/injection, schedule: Q04DX002 (ip), vehicle: other 109 % of control | endpoint: mean survival time, dose: 200.0 mg/kg/injection, schedule: Q04DX002 (ip), vehicle: other 91 % of control

CSc1nc(SC)c2cnn(C3OC(CO)C(O)C3O)c2n1 (configuration not stated)
inactive: endpoint: median survival time, dose: 3.12 mg/kg/injection, schedule: Q01DX005 (ip), vehicle: saline with Tween-80 95 % of control | endpoint: median survival time, dose: 6.25 mg/kg/injection, schedule: Q01DX005 (ip), vehicle: saline with Tween-80 100 % of control | endpoint: median survival time, dose: 12.5 mg/kg/injection, schedule: Q01DX005 (ip), vehicle: saline with Tween-80 102 % of control and 103 % of control | endpoint: median survival time, dose: 25.0 mg/kg/injection, schedule: Q01DX005 (ip), vehicle: saline with Tween-80 102 % of control and 101 % of control and 97 % of control | endpoint: median survival time, dose: 50.0 mg/kg/injection, schedule: Q01DX005 (ip), vehicle: saline with Tween-80 102 % of control and 101 % of control and 97 % of control | endpoint: median survival time, dose: 100.0 mg/kg/injection, schedule: Q01DX005 (ip), vehicle: saline with Tween-80 102 % of control and 95 % of control | endpoint: median survival time, dose: 200.0 mg/kg/injection, schedule: Q01DX005 (ip), vehicle: saline with Tween-80 93 % of control and 95 % of control

CCN(CC)c1ccc(N(C(C)=O)C(C)=O)cc1
inactive: endpoint: mean survival time, dose: 6.25 mg/kg/injection, schedule: Q04DX003 (ip), vehicle: saline with Tween-80 91 % of control | endpoint: mean survival time, dose: 12.5 mg/kg/injection, schedule: Q04DX003 (ip), vehicle: saline with Tween-80 95 % of control | endpoint: mean survival time, dose: 25.0 mg/kg/injection, schedule: Q04DX003 (ip), vehicle: saline with Tween-80 93 % of control

CCC[As](=O)(O)CCC
inactive: endpoint: mean survival time, dose: 25.0 mg/kg/injection, schedule: Q01DX009 (ip), vehicle: saline 103 % of control | endpoint: mean survival time, dose: 50.0 mg/kg/injection, schedule: Q01DX009 (ip), vehicle: saline 108 % of control | endpoint: mean survival time, dose: 100.0 mg/kg/injection, schedule: Q01DX009 (ip), vehicle: saline 98 % of control

Cn1c(N)c(C2OC(=O)c3ccccc32)c(=O)n(C)c1=O (configuration not stated)
inactive: endpoint: mean survival time, dose: 100.0 mg/kg/injection, schedule: Q04DX002 (ip), vehicle: Klucel (hydroxypropylcellulose) (HPC) 98 % of control | endpoint: mean survival time, dose: 200.0 mg/kg/injection, schedule: Q04DX002 (ip), vehicle: Klucel (hydroxypropylcellulose) (HPC) 98 % of control

O=C(O)CCCc1ccc(Oc2ccccc2)cc1
inactive: [1] 94 % of control | endpoint: mean survival time, dose: 100.0 mg/kg/injection, schedule: Q04DX003 (ip), vehicle: other 106 % of control | [2] 95 % of control | endpoint: mean survival time, dose: 200.0 mg/kg/injection, schedule: Q04DX003 (ip), vehicle: other 93 % of control | [3] 96 % of control | endpoint: mean survival time, dose: 400.0 mg/kg/injection, schedule: Q04DX003 (ip), vehicle: other 95 % of control

CC1(C)CN(c2ccccc2)N(CN2CCOCC2)C1=O
inactive: endpoint: mean survival time, dose: 12.5 mg/kg/injection, schedule: Q01DX009 (ip), vehicle: Klucel (hydroxypropylcellulose) (HPC) 89 % of control

ClCc1c2c(cc3c1CCCC3)CCCC2
inactive: [5] 105 % of control | [7] 93 % of control
